Experimental data as given in patent publication US20230365546A1, “5-SUBSTITUTED INDOLE 3-AMIDE DERIVATIVES, PREPARATION METHOD AND USE THEREOF” (ORIGIANT PHARMACEUTICAL CO., LTD, priority 2020, published 2023).

Columns and labels:
Test in all cases: Kinase Profiler 10 μM panel
TAF1L(h) = TAF1L(h) (Homo sapiens (Human), UniProt Q8IZX4)
Protocol: (§1) In vitro kinase assays were conducted using Kinase Profiler services provided by Eurofins. The experimental method was as follows: the small molecule compound to be tested (0.001-10 μM), the protein kinase to be tested were incubated with a buffer containing substrate, 10 mM magnesium acetate, and [γ-^33P-ATP], the reaction was started by adding Mg\TPmix, after incubation for a period of time at room temperature, a 3% phosphate solution was added to the buffer to stop the reaction. Subsequently, 10 μL of the reaction mixture was quantitatively pipetted onto P30 filter paper, which was washed three times with 75 mM phosphate solution and then once with methanol. The P30 filter paper was air-dried and scintillation fluid was added for scintillation counting.

PEK(h) = PEK(h) (Homo sapiens (Human), UniProt Q9NZJ5)
Protocol: as §1

DAPK2(h) = DAPK2(h) (Homo sapiens (Human), UniProt Q9UIK4)
Protocol: as §1

ErbB4(h) = ErbB4(h) (Homo sapiens (Human), UniProt Q15303)
Protocol: as §1

DDR2(h) = DDR2(h) (Homo sapiens (Human), UniProt Q16832)
Protocol: as §1

Wee1B(h) = Wee1B(h) (Homo sapiens (Human), UniProt P0C1S8)
Protocol: as §1

MSSK1(h) = MSSK1(h) (Homo sapiens (Human), UniProt Q9UPE1)
Protocol: as §1

B-Raf(V599E)(h) = B-Raf(V599E)(h) (Homo sapiens (Human), UniProt P15056, V600E)
Protocol: as §1

PAK3(h) = PAK3(h) (Homo sapiens (Human), UniProt O75914)
Protocol: as §1

Arg(m) = Arg(m) (Mus musculus (Mouse), UniProt Q4JIM5)
Protocol: as §1

JNK3(h) = JNK3(h) (Homo sapiens (Human), UniProt P53779)
Protocol: as §1

SAPK2a(h) = SAPK2a(h) (Homo sapiens (Human), UniProt Q16539)
Protocol: as §1

JAK1(h) = JAK1(h) (Homo sapiens (Human), UniProt P23458)
Protocol: as §1

PKD3(h) = PKD3(h) (Homo sapiens (Human), UniProt O94806)
Protocol: as §1

Plk3(h) = Plk3(h) (Homo sapiens (Human), UniProt Q9H4B4)
Protocol: as §1

IGF-1R(h) = IGF-1R(h) (Homo sapiens (Human), UniProt P08069)
Protocol: as §1

PRKG2(h) = PRKG2(h) (Homo sapiens (Human), UniProt Q13237)
Protocol: as §1

DRAK1(h) = DRAK1(h) (Homo sapiens (Human), UniProt Q9UEE5)
Protocol: as §1

KDR(h) = KDR(h) (Homo sapiens (Human), UniProt P35968)
Protocol: as §1

NDR2(h) = NDR2(h) (Homo sapiens (Human), UniProt Q9Y2H1)
Protocol: as §1

CDK2/cyclinE(h) = CDK2/cyclinE(h) (Homo sapiens (Human), UniProt P24941)
Protocol: as §1

PKG1α(h) = PKG1α(h) (Homo sapiens (Human), UniProt Q13976)
Protocol: as §1

Ret (V804L)(h) = Ret (V804L)(h) (Homo sapiens (Human), UniProt P07949, V804L)
Protocol: as §1

GRK6(h) = GRK6(h) (Homo sapiens (Human), UniProt P43250)
Protocol: as §1

Ret(h) = Ret(h) (Homo sapiens (Human), UniProt P07949)
Protocol: as §1

Tie2(R849W)(h) = Tie2(R849W)(h) (Homo sapiens (Human), UniProt Q02763, R849W)
Protocol: as §1

LIMK1(h) = LIMK1(h) (Homo sapiens (Human), UniProt P53667)
Protocol: as §1

PKCζ(h) = PKCζ(h) (Homo sapiens (Human), UniProt Q05513)
Protocol: as §1

Fes(h) = Fes(h) (Homo sapiens (Human), UniProt P07332)
Protocol: as §1

PKR(h) = PKR(h) (Homo sapiens (Human), UniProt P19525)
Protocol: as §1

PAK2(h) = PAK2(h) (Homo sapiens (Human), UniProt Q13177)
Protocol: as §1

CSRC(h) = CSRC(h) (Homo sapiens (Human), UniProt P12931)
Protocol: as §1

ATM(h) = ATM(h) (Homo sapiens (Human), UniProt Q13315)
Protocol: as §1

Flt3(D835Y)(h) = Flt3(D835Y)(h) (Homo sapiens (Human), UniProt P36888, D835Y)
Protocol: as §1

Chain of DDR2(h) (Q16832 22-855): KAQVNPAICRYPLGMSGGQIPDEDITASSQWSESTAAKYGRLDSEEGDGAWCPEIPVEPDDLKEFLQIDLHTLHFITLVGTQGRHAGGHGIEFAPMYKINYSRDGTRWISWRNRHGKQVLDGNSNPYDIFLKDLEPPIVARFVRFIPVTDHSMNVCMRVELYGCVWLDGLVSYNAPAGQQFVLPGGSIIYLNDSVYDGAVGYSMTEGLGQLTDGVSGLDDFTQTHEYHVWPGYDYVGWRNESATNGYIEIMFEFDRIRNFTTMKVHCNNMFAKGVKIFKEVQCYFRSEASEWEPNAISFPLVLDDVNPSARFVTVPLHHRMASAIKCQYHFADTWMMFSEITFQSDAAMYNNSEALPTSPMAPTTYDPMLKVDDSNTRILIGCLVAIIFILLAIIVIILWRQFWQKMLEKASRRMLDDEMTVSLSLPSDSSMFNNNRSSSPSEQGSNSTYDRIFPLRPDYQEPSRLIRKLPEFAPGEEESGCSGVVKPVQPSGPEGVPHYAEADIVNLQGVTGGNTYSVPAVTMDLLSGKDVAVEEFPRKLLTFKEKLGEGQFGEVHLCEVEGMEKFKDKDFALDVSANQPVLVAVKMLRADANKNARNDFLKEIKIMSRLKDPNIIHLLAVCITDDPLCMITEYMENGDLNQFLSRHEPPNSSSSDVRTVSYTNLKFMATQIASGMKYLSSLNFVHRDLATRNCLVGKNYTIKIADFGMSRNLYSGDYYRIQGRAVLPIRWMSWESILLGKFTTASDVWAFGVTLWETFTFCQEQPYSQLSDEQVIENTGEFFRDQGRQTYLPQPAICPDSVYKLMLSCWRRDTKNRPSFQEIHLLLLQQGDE
Chain of Ret(h) (P07949 29-1114): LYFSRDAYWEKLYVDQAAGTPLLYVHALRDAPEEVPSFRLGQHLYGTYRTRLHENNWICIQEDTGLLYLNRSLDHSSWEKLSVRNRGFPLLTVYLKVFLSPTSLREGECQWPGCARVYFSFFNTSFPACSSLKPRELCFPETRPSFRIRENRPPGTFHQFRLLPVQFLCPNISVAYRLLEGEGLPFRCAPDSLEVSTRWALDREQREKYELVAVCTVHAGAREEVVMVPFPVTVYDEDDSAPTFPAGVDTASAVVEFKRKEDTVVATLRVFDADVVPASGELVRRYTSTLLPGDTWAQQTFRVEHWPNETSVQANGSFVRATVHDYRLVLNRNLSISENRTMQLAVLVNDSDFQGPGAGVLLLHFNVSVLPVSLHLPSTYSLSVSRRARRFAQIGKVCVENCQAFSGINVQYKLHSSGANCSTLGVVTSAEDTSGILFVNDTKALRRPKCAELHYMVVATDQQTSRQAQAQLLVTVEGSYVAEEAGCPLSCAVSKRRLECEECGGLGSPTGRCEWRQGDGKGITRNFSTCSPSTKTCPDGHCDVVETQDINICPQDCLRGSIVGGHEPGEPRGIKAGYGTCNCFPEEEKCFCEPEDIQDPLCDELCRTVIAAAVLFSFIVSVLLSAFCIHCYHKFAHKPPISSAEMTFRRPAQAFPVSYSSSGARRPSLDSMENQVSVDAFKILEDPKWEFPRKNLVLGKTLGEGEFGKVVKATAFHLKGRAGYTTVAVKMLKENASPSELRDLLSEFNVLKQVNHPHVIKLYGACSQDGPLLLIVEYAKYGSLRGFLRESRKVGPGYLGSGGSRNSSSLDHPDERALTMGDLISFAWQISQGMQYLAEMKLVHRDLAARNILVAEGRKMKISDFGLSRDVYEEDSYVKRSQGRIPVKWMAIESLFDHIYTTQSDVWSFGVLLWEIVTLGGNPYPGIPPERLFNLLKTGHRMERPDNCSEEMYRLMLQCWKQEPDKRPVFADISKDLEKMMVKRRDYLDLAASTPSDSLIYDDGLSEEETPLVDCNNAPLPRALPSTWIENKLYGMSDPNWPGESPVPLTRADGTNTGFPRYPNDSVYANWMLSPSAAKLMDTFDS
Chain of TAF1L(h) (Q8IZX4 whole entry): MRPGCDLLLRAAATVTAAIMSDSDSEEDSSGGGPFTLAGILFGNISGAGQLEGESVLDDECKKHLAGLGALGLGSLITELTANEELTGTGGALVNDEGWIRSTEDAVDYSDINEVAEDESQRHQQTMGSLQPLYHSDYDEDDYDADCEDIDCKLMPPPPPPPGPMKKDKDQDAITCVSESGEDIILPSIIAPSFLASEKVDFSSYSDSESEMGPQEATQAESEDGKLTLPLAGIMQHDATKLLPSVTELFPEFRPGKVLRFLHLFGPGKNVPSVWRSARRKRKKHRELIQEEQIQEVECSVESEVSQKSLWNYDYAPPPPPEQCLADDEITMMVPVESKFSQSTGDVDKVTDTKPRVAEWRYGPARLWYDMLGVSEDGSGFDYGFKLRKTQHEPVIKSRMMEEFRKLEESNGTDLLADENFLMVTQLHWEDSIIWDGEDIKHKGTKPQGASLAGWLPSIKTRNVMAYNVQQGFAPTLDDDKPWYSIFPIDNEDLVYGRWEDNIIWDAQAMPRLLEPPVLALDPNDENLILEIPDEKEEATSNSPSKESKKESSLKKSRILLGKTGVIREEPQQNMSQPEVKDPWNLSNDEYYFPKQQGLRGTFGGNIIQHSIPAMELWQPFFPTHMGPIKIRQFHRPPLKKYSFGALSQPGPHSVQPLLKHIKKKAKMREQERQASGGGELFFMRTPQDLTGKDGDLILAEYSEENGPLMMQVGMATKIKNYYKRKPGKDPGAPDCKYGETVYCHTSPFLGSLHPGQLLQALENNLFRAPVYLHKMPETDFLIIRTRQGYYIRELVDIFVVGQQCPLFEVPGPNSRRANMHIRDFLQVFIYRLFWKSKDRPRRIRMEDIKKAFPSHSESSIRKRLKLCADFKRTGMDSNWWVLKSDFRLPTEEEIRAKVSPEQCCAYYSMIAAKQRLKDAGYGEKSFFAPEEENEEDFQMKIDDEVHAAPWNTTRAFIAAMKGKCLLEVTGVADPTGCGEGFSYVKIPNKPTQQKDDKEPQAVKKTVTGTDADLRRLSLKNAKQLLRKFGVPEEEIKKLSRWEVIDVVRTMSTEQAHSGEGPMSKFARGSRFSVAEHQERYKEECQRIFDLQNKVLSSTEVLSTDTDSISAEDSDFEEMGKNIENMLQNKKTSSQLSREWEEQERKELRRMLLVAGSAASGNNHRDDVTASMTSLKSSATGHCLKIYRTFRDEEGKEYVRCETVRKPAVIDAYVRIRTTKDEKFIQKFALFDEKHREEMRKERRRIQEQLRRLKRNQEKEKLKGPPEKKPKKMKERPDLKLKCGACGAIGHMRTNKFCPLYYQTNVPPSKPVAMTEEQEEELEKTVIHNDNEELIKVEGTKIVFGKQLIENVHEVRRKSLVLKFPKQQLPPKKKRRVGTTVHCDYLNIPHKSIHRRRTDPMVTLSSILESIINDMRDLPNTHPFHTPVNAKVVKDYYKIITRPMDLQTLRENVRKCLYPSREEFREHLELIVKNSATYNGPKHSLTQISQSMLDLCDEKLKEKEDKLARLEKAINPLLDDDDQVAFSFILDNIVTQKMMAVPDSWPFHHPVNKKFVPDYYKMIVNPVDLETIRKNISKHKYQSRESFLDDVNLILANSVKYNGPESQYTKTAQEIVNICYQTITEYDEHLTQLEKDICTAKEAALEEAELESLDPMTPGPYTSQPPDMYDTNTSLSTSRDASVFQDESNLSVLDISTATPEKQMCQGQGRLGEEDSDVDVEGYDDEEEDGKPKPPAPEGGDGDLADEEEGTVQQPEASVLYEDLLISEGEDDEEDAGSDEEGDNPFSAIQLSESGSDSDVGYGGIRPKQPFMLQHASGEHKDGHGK
Chain of JAK1(h) (P23458 whole entry): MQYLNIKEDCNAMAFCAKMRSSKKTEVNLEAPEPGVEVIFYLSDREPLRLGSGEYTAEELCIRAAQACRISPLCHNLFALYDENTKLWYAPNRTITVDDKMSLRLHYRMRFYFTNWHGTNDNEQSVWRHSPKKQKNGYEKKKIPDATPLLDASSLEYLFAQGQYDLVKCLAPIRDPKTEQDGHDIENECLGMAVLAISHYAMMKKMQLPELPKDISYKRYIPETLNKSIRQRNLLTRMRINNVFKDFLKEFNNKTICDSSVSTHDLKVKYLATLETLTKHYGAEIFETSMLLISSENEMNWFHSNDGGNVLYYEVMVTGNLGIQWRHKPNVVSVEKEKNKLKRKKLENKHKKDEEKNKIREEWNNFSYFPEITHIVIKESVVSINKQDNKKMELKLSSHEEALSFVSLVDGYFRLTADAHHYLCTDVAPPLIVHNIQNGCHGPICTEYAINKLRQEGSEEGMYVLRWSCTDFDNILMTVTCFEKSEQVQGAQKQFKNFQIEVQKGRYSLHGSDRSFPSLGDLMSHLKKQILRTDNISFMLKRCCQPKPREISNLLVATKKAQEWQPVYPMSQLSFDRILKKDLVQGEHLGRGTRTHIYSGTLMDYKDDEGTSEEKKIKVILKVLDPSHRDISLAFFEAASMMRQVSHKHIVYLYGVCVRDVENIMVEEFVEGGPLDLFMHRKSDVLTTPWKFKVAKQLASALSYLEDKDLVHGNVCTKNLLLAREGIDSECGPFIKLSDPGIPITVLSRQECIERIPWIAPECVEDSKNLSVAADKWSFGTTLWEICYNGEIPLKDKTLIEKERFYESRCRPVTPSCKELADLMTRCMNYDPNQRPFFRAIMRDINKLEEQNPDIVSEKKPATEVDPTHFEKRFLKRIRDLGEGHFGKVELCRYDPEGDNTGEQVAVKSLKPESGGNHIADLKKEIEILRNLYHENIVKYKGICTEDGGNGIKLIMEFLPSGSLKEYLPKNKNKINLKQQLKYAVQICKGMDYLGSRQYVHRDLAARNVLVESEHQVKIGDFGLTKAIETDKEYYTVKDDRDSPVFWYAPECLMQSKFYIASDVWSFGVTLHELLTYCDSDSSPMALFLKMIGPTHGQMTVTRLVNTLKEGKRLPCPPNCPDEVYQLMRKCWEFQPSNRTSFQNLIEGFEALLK
Chain of Ret (V804L)(h) (P07949 29-1114 V804L): as the sequence (P07949 29-1114) above, with V776L counted along it

Q: Which Inhibition ratio (TAF1L(h)) does the source give for `C[C@H](NC(=O)c1c[nH]c2ccc(-c3ccc4nc(NC(=O)C5CC5)sc4c3)cc12)c1cccc(F)c1` [Compound 34, (S)-5-(2-(cyclopropanecarboxamido)benzo[d]thiazol-6-yl)-N-(1-(3-fluorophenyl)ethyl)-1H-indole-3-carboxamide] here?
A: Its Inhibition ratio is 58%.

Q: What about the Inhibition ratio (PEK(h)) of the same compound?
A: Its Inhibition ratio is 1%.

Q: And the Inhibition ratio (DAPK2(h))?
A: Its Inhibition ratio is 13%.

Q: And the Inhibition ratio (ErbB4(h))?
A: Its Inhibition ratio is 22%.

Q: What about the Inhibition ratio (DDR2(h)) of the same compound?
A: Its Inhibition ratio is 76%.

Q: And the Inhibition ratio (Wee1B(h))?
A: Its Inhibition ratio is −2%.

Q: What about the Inhibition ratio (MSSK1(h)) of the same compound?
A: Its Inhibition ratio is 24%.

Q: And the Inhibition ratio (B-Raf(V599E)(h))?
A: The Inhibition ratio was 14%.

Q: And the Inhibition ratio (PAK3(h))?
A: The Inhibition ratio was −1%.

Q: And the Inhibition ratio (Arg(m))?
A: The Inhibition ratio was 87%.

Q: And the Inhibition ratio (JNK3(h))?
A: Its Inhibition ratio is 63%.

Q: And the Inhibition ratio (SAPK2a(h))?
A: Its Inhibition ratio is 29%.

Q: What about the Inhibition ratio (JAK1(h)) of the same compound?
A: The Inhibition ratio was 26%.

Q: And the Inhibition ratio (PKD3(h))?
A: Its Inhibition ratio is −5%.

Q: What about the Inhibition ratio (Plk3(h)) of the same compound?
A: The Inhibition ratio was 9%.

Q: What about the Inhibition ratio (IGF-1R(h)) of the same compound?
A: The Inhibition ratio was 28%.

Q: And the Inhibition ratio (PRKG2(h))?
A: Its Inhibition ratio is 3%.

Q: And the Inhibition ratio (DRAK1(h))?
A: Its Inhibition ratio is 38%.

Q: And the Inhibition ratio (KDR(h))?
A: Its Inhibition ratio is 83%.

Q: What about the Inhibition ratio (NDR2(h)) of the same compound?
A: Its Inhibition ratio is 23%.

Q: What about the Inhibition ratio (CDK2/cyclinE(h)) of the same compound?
A: The Inhibition ratio was 9%.

Q: And the Inhibition ratio (PKG1α(h))?
A: Its Inhibition ratio is −12%.

Q: And the Inhibition ratio (Ret (V804L)(h))?
A: Its Inhibition ratio is 99%.

Q: What about the Inhibition ratio (GRK6(h)) of the same compound?
A: The Inhibition ratio was 0%.

Q: And the Inhibition ratio (Ret(h))?
A: The Inhibition ratio was 96%.

Q: And the Inhibition ratio (Tie2(R849W)(h))?
A: The Inhibition ratio was 86%.

Q: And the Inhibition ratio (LIMK1(h))?
A: Its Inhibition ratio is 14%.

Q: What about the Inhibition ratio (PKCζ(h)) of the same compound?
A: Its Inhibition ratio is 10%.

Q: What about the Inhibition ratio (Fes(h)) of the same compound?
A: The Inhibition ratio was 26%.

Q: What about the Inhibition ratio (PKR(h)) of the same compound?
A: The Inhibition ratio was 11%.

Q: And the Inhibition ratio (PAK2(h))?
A: Its Inhibition ratio is 19%.

Q: And the Inhibition ratio (CSRC(h))?
A: Its Inhibition ratio is 43%.

Q: And the Inhibition ratio (ATM(h))?
A: Its Inhibition ratio is 3%.

Q: What about the Inhibition ratio (Flt3(D835Y)(h)) of the same compound?
A: Its Inhibition ratio is 82%.

Q: `C[C@H](NC(=O)c1cn(C)c2ccc(-c3ccn4nc(NC(=O)C5CC5)nc4c3)cc12)c1cccc(F)c1` [Compound 94, (S)-5-(2-(cyclopropanecarboxamido)-[1,2,4]triazolo[1,5-a]pyridin-7-yl)-N-(1-(3-fluorophenyl)ethyl)-1-methyl-1H-indole-3-carboxamide] was tested. Which Inhibition ratio/% (TAF1L(h)) did it give?
A: The Inhibition ratio/% was 48%.

Q: What about the Inhibition ratio/% (PEK(h)) of the same compound?
A: Its Inhibition ratio/% is 36%.

Q: And the Inhibition ratio/% (DAPK2(h))?
A: The Inhibition ratio/% was 3%.

Q: And the Inhibition ratio/% (ErbB4(h))?
A: Its Inhibition ratio/% is 63%.

Q: What about the Inhibition ratio/% (DDR2(h)) of the same compound?
A: Its Inhibition ratio/% is 20%.

Q: And the Inhibition ratio/% (Wee1B(h))?
A: Its Inhibition ratio/% is −2%.

Q: And the Inhibition ratio/% (MSSK1(h))?
A: The Inhibition ratio/% was −12%.

Q: And the Inhibition ratio/% (B-Raf(V599E)(h))?
A: The Inhibition ratio/% was −10%.

Q: And the Inhibition ratio/% (PAK3(h))?
A: Its Inhibition ratio/% is −19%.

Q: What about the Inhibition ratio/% (Arg(m)) of the same compound?
A: The Inhibition ratio/% was 11%.

Q: What about the Inhibition ratio/% (JNK3(h)) of the same compound?
A: The Inhibition ratio/% was 40%.

Q: And the Inhibition ratio/% (SAPK2a(h))?
A: Its Inhibition ratio/% is 17%.

Q: And the Inhibition ratio/% (JAK1(h))?
A: Its Inhibition ratio/% is 52%.

Q: And the Inhibition ratio/% (PKD3(h))?
A: Its Inhibition ratio/% is −13%.

Q: What about the Inhibition ratio/% (Plk3(h)) of the same compound?
A: The Inhibition ratio/% was 12%.

Q: And the Inhibition ratio/% (IGF-1R(h))?
A: Its Inhibition ratio/% is −4%.

Q: What about the Inhibition ratio/% (PRKG2(h)) of the same compound?
A: The Inhibition ratio/% was −9%.

Q: And the Inhibition ratio/% (DRAK1(h))?
A: The Inhibition ratio/% was 30%.

Q: What about the Inhibition ratio/% (KDR(h)) of the same compound?
A: The Inhibition ratio/% was −12%.

Q: What about the Inhibition ratio/% (NDR2(h)) of the same compound?
A: Its Inhibition ratio/% is 46%.

Q: What about the Inhibition ratio/% (CDK2/cyclinE(h)) of the same compound?
A: The Inhibition ratio/% was 36%.

Q: What about the Inhibition ratio/% (PKG1α(h)) of the same compound?
A: The Inhibition ratio/% was 12%.

Q: And the Inhibition ratio/% (Ret (V804L)(h))?
A: The Inhibition ratio/% was 50%.

Q: What about the Inhibition ratio/% (GRK6(h)) of the same compound?
A: Its Inhibition ratio/% is 2%.

Q: What about the Inhibition ratio/% (Ret(h)) of the same compound?
A: The Inhibition ratio/% was 50%.

Q: And the Inhibition ratio/% (Tie2(R849W)(h))?
A: Its Inhibition ratio/% is 16%.

Q: What about the Inhibition ratio/% (LIMK1(h)) of the same compound?
A: Its Inhibition ratio/% is −1%.

Q: What about the Inhibition ratio/% (PKCζ(h)) of the same compound?
A: Its Inhibition ratio/% is −2%.

Q: And the Inhibition ratio/% (Fes(h))?
A: The Inhibition ratio/% was 54%.

Q: And the Inhibition ratio/% (PKR(h))?
A: The Inhibition ratio/% was 19%.

Q: And the Inhibition ratio/% (PAK2(h))?
A: The Inhibition ratio/% was −14%.

Q: What about the Inhibition ratio/% (CSRC(h)) of the same compound?
A: Its Inhibition ratio/% is −17%.

Q: What about the Inhibition ratio/% (ATM(h)) of the same compound?
A: Its Inhibition ratio/% is −15%.

Q: And the Inhibition ratio/% (Flt3(D835Y)(h))?
A: Its Inhibition ratio/% is 12%.
